Reference: patent US12221426B2, “Inhibitory material against human body-derived nicotinamide adenine dinucleotide phosphate-dependent steroid dehydrogenase-like, and anticancer agent comprising same as effective ingredient or pharmaceutical composition comprising same as effective ingredient for treatment of hyperlipidemia” (SEOUL NATIONAL UNIVERSITY R&DB FOUNDATION, priority 2018, dated 2025)

target: Human-derived nicotinamide adenine dinucleotide phosphate-dependent steroid dehydrogenase (NSDHL) (Homo sapiens (Human), UniProt Q15738); assay: NSDHL inhibitory activity evaluation: decrease of NADH fluorescence amplification when inhibitor releases NADH from NSDHL; type: binding; conditions: recombinant NSDHL (16 μM, 50 μl) + NADH (50 μM, 50 μl), room temperature 10 min, Ex 340 nm/Em 460 nm, 96-well plate
Sequence (Q15738 whole entry): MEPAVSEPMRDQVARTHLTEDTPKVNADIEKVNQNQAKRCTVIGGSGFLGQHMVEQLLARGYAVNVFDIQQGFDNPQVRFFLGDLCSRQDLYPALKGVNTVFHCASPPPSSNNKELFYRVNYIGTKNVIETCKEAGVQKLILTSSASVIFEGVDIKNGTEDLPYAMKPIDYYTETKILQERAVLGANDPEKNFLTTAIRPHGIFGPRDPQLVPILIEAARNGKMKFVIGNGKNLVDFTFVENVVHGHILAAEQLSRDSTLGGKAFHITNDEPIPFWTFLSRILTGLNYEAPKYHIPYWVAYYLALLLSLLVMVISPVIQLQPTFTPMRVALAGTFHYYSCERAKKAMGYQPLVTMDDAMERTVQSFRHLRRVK
Description: In order to evaluate the nicotinamide adenine dinucleotide phosphate-dependent steroid dehydrogenase (NSDHL) inhibitory activity of the compound provided in one aspect of the present invention, the following experiment was performed.
Human-derived nicotinamide adenine dinucleotide phosphate-dependent steroid dehydrogenase (NADP-dependent steroid dehydrogenase-like; NSDHL) was expressed in large quantities in E. coli. The NSDHL gene was inserted into pET21a plasmid, which was cloned into E. coli C41 (DE3). After culturing E. coli in Luria Broth medium at 37° C., IPTG was added thereto at the time when OD600 was about 0.7 to express NSDHL, followed by culture at 37° C. for 4 hours.
The cultured E. coli was centrifuged, and the cells were stored at −80° C. The cells were crushed by sonification, which was first purified using IMAC (Immobilized metallo-affinity chromatography), and then finally purified using SEC (Size exclusion chromatography). The composition of the buffer solution for storing NSDHL was as follows: 40 mM HEPES (pH 8.0), 150 mM NaCl, and 0.5 mM TCEP.
When dehydrogenase binds to NADH, fluorescence intensity is amplified compared to NADH alone. In other words, if the dehydrogenase, NSDHL, is treated with an inhibitor in a state in which it is bound to NADH, the fluorescence intensity will be reduced because NADH is released. FIG. 1 is a graph showing the results of measuring the fluorescence intensity of NADH according to the concentration of NSDHL.
In addition, it was also confirmed in FIG. 2 that an experiment for inhibiting was possible using NAD+, which is an oxidized form of NADH, but is not measured in the fluorescence measurement range of NADH. FIG. 2 is a graph showing the results of an experiment for inhibiting NSDHL and NADH conjugate using NAD+.
An activity assay was performed using a 96-well plate, and an experiment was performed after adding an inhibitor to each well at the final concentrations of 200 μM≤1 μM. Particularly, 50 μl of 16 μM NSDHL, 50 mM HEPES, 20% glycerol were added to each well, and then 50 ul of 50 μM NADH was added to each well, followed by reaction at room temperature for 10 minutes. The fluorescence level of each well was measured using SpectraMax M5 (Molecular Devices) equipment (Ex: 340 nm, Em: 460 nm). The values were corrected by separately measuring the absorbance of the compound and the buffer solution, and the degree of inhibition of each compound against NSDHL was measured based on the NADH fluorescence at the same concentration without binding. IC50 (inhibitory concentration at 50%) was calculated using GraphPad Prism software.

Q: How did the IC50 turn out when O=C(O)CN1C(=O)/C(=C/c2cc(-c3ccc(F)cc3)ccc2OCc2ccc(C(=O)O)cc2)SC1=S [Example 1, (Z)-4-((3-((3-(carboxymethyl)-4-oxo-2-thioxothiazolidin-5-ylidene)methyl)-4′-fluorobiphenyl-4-yloxy)methyl)benzoic acid] was run?
A: 10.4 µM

Q: With O=C(O)CN1C(=O)/C(=C/c2cn(-c3ccc(F)cc3)nc2-c2cccc(Cl)c2)SC1=S [Example 2, (Z)-2-(5-((3-(3-chlorophenyl)-1-(4-fluorophenyl)-1H-pyrazole-4-yl)methylene)-4-oxo-2-thioxothiazolidin-3-yl)acetic acid] as the compound, how does the IC50 read?
A: 12.8 µM

Q: Which IC50 does the source give for COc1cccc(OCc2ccccc2)c1/C=C1\SC(=S)N(CC(=O)O)C1=O [Example 3, (Z)-2-(5-(2-(benzyloxy)-6-methoxybenzylidene)-4-oxo-2-thioxothiazolidin-3-yl)acetic acid] here?
A: 19.9 µM

Q: Which IC50 does the source give for O=C(O)CN1C(=O)/C(=C/c2ccc(O)cc2OCc2ccccc2Br)SC1=S [Example 4, (Z)-2-(5-(2-(2-bromobenzyloxy)-4-hydroxybenzylidene)-4-oxo-2-thioxothiazolidin-3-yl)acetic acid] here?
A: 17.8 µM

Q: With O=C(O)CN1C(=O)/C(=C/c2cc(Br)ccc2OCc2ccccc2I)SC1=S [Example 5, (Z)-2-(5-(5-bromo-2-(2-iodobenzyloxy)benzylidene)-4-oxo-2-thioxothiazolidin-3-yl)acetic acid] as the compound, how does the IC50 read?
A: 27.1 µM
